Patent US10195578B2, “Peptide library production method, peptide library, and screening method” (The University of Tokyo, priority 2010, dated 2019)
Structures can show the parent of a compound that is named as a salt. Where a SMILES comes first, the peptide text is derived from it. Bridges are numbered along the chain shown (N, C = ends). Where no end group is shown, it is not given here. [ ]: non-standard residue; d: D form. The star is where a group is joined. Tfa = O=C(C(F)(F)F)*

Biological target: T1, SIRT2 (Homo sapiens, UniProt Q8IXJ6)
T1 sequence (Q8IXJ6 1-389): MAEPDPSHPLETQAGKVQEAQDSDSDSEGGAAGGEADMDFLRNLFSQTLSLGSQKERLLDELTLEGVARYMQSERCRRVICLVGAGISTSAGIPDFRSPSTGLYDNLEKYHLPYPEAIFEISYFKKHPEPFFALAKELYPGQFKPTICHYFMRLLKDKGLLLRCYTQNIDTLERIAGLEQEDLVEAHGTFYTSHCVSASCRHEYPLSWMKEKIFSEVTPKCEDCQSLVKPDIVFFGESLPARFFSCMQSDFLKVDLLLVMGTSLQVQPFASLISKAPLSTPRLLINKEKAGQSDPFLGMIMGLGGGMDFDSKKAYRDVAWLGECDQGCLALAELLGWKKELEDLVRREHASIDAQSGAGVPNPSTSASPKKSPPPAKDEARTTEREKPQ
Experiment: Evaluation of inhibitory activity of peptides against SIRT2 (fluorescence-using system)
Format: biochemical
Conditions: peptide at 1 μM; FIG. 3
Description: In an evaluation system using fluorescence, the inhibitory activity of the selected peptides against SIRT2 was studied. More specifically, first, peptides to be deacetylated with SIRT2 each having, at both ends thereof, a fluorescent group and a quenching group is deacetylated by mixing with SIRT2. When the resulting peptides are reacted with protease that cleaves only a deacetylated peptide, the quenching group is dissociated from the fluorescent group of only the peptides deacetylated with SIRT2 and fluorescence is emitted. During this deacetylation reaction, presence of an inhibitor against SIRT2 retards the progress of deacetylation of the substrate peptide and fluorescence intensity obtained in the end decreases. This means that the inhibitory ability of the selected peptides can be evaluated by the intensity of fluorescence observed in the end.

Compound | inhibitory ability against SIRT2 (activity of SIRT2, fluorescence intensity)
CC[C@H](C)[C@@H]1NC(=O)[C@H](CCCNC(=N)N)NC(=O)[C@H](Cc2ccc(O)cc2)NC(=O)[C@H](CC(=O)O)NC(=O)[C@H](Cc2c[nH]cn2)NC(=O)[C@@H](Cc2ccc(O)cc2)NC(=O)CSC[C@@H](C(=O)NCC(=O)N[C@@H](CO)C(=O)NCC(=O)N[C@@H](CO)C(=O)NCC(=O)N[C@@H](CO)C(=O)O)NC(=O)[C@@H]2CCCN2C(=O)[C@H](Cc2ccc(O)cc2)NC(=O)[C@H]([C@@H](C)O)NC(=O)[C@H](Cc2c[nH]cn2)NC(=O)[C@H](Cc2ccc(O)cc2)NC(=O)[C@H](CCCNC(=N)N)NC(=O)[C@H](CCCCNC(=O)C(F)(F)F)NC1=O [2D-08, XHDYRIZRYHTYPC] ({CH2CO}-[dY]HDYRIK(Tfa)RYHTYPCGSGSGS-OH; thioether N-14; N-terminus and C-terminus assumed) | completely suppressed the activity of SIRT2
CC[C@H](C)[C@@H]1NC(=O)[C@H](CCCNC(=N)N)NC(=O)[C@H](Cc2ccccc2)NC(=O)[C@H](CC(N)=O)NC(=O)[C@H](CO)NC(=O)[C@H](Cc2ccc(O)cc2)NC(=O)CSC[C@@H](C(=O)NCC(=O)N[C@@H](CO)C(=O)NCC(=O)N[C@@H](CO)C(=O)NCC(=O)N[C@@H](CO)C(=O)O)NC(=O)[C@H](CO)NC(=O)[C@H](CO)NC(=O)[C@H](CC(N)=O)NC(=O)[C@H](CO)NC(=O)[C@H](Cc2ccc(O)cc2)NC(=O)[C@H](CCCNC(=N)N)NC(=O)[C@H](CCCCNC(=O)C(F)(F)F)NC1=O [2L-08, XSNFRIZRYSNSSC] ({CH2CO}-YSNFRIK(Tfa)RYSNSSCGSGSGS-OH; thioether N-14; N-terminus and C-terminus assumed) | completely suppressed the activity of SIRT2
XHTYHNZRRTNYYC [2L-05] | completely suppressed the activity of SIRT2
XYNTIIZTYGC ({CH2CO}-[dY]YNTIIK(trifluoroacetyl)TYGCGSGSGS; thioether N-11 (inferred)) [2D-03, thioether-cyclized peptide from NNC library; X = α-N-chloroacetyl-D-tyrosine, Z = ε-N-trifluoroacetyllysine] | completely suppressed the activity of SIRT2
